Measurements from patent publication US12685781B2, “Anti-HER3 antibody-drug conjugate” (DAIICHI SANKYO COMPANY, LIMITED, priority 2014, dated 2026).

Legend:
[1] = test system: human melanoma cell line HT-144; assay: Antitumor test, human melanoma HT-144 in NMRI nude mice; format: in vivo, mouse; conditions: 25 mg/kg subcutaneously twice a week
Method: Five- to 6-week-old female NMRI nude mice having a body weight of 22 to 26 g after acclimation were used. The mice were placed in individually ventilated cages (IVC, 4 mice at maximum per cage) which were kept at room temperature and a constant humidity. After randomization, the body weights of the mice were measured every other day, and the behaviors of the animals were recorded every day.
5×10^6 cells of a human melanoma cell line HT-144 (HTB-63) from ATCC were suspended in a solution prepared from 50 uL of PBS and Matrigel (PBS: PAA #H21-002, Matrigel: BD #354230) mixed at a ratio of 1:1, and subcutaneously transplanted to the right side area of the body of each NMRI nude mouse using a 29 G needle.
The measurement of the body weights and the tumor sizes and the measurement and calculation of the tumor volumes were carried out in the same manner as Test Example 6.
At Day 22 when the tumor size reached about 150 mm^3, 80 animals were randomly divided into 8 groups on the basis of their tumor sizes. At the same day, U1-59 or the antibody-drug conjugate (3), (10), or (13) or PBS for a control group were administered into the tail vein of each animal at the following doses.
Administration group: PBS was intravenously injected once a week at the same dose as the antibody-drug conjugate.
Administration group: U1-59 was subcutaneously injected twice a week at 25 mg/kg. […]

HER3 = HER3 (Homo sapiens, UniProt P21860); assay: Reduction in expression of HER3 on cell surface (internalization), flow cytometry in HCC1569; format: cell-based; set-up: host or cells: HCC1569 (human breast cancer cell line); conditions: HCC1569, 10 ug/mL, 37 C, 1 hr
Method: HER3 internalization by U1-59 and each antibody-drug conjugate was evaluated by flow cytometry. 70,000 living cells of HCC1569 (from ATCC) were suspended in 0.5 mL of RPMI1640 (Invitrogen Corp., #31870-025) (containing 10% FBS (Invitrogen Corp., #10270-106 or PAN Biotech GmbH, #1505-P131304) and 2 mM glutamine (Invitrogen Corp., #25030-024)) and inoculated to each well of a 24-well plate. The cells were cultured for 4 days, and the medium was replaced with 0.5 mL of a fresh medium before the start of the internalization test. 5 ug of the antibody or each antibody-drug conjugate was added to 0.5 mL in each well of the 24-well plate such that the final concentration was 10 ug/mL. The cells were cultured for 1 hour at 37 C in the presence of the antibody or the antibody-drug conjugate. […]
For flow cytometry analysis, the cells were washed once with PBS and dissociated from the plate using 5 mM EDTA (100 uL/well) dissolved in ACCUTASE® SOLUTION (Millipore Corp., SCR005) or PBS. […] The fluorescence signals of living cells were measured using Accuri C6 Flow cytometer. […]
In order to quantify HER3-specific signals, values of cells stained with only the secondary antibody or 7-AAD were subtracted from FL-2 values of cells stained with the primary antibody and the secondary antibody, and further 7-AAD. […]

Q: How did the “day after transplantation at which group was euthanized because tumor sizes exceeded acceptable maximum level” value [1] turn out when “U1-59: anti-HER3 human antibody; heavy and light chain variable regions SEQ ID NOs: 70 and 72; produced per WO 2007/077028” was run?
A: The value was 52 days.

Q: What about the “reduction in HER3 expression on cell surface” value (HER3) of the same substance?
A: Its value is “about 50%”.
